Assay results: patent publication US12240822B2, “Naphthalene isoxazoline compound and application thereof” (SHANDONG C[…] SEA PHARMACEUTICAL TECHNOLOGY CO., LTD., priority 2023, dated 2025)
In brackets after ≈: the same amount, converted by molar mass. Several values for one entry are separate records, joined by “and”; a condition that tells them apart may be missing. Equal values may be shown once.

Key:
Thrips palmi Karny = test: Indoor toxicity test on Thrips palmi Karny adults, liquid tube drug film method with leaf soaking; assay type: in vivo; set-up: LC90 value of the A4 as fraction of the LC90 value of the C4 / LC90 value of the A4 as fraction of the LC90 value of the B4: unit not given beside the values; conditions: for LC50 / LC90: Thrips palmi Karny adults, 48 h after administration
Protocol: Through indoor tests, a liquid tube drug film method improved by a filter paper drug film method was used for evaluating the indoor toxicity effects of three raw drugs on Thrips palmi Karny.
Thrips palmi Karny was raised indoors in the insectary of the Plant Protection Institute of Shandong Academy of Agricultural Sciences.
Culture was performed in an illumination incubator, and raising and observation were performed under the conditions that the temperature was 25.0±2.0° C., the relative humidity was 75±5% and the photoperiod (L/D) was 14 h/10 h.
The insect for tests is an adult of Thrips palmi Karny.
Three test medicaments were prepared into a mother solution with methanol and then diluted with a Tween-80 aqueous solution having a mass concentration of 0.1% in equal proportions, and the concentration was set in equal proportions. • B4 concentration: 0.5, 1, 2, 4, 8, 16 mg/L; • C4 concentration: 25, 12.5, 6.25, 3.125, 1.5625, 0.7813 mg/L; • A4 concentration: 0.1, 0.05, 0.025, 0.0125, 0.00625, 0.003125 mg/L. 3.2.2 Test Repetition
Each processing was repeated 4 times, and 30 insects for tests were used for each repetition.
According to NY/T 1154.8-2007, the liquid tube drug film method improved by the filter paper drug film method was used for processing insects for tests. Medicaments for tests were diluted into 6 concentrations, a 1.5 mL centrifugal tube was filled with each concentration of liquid medicine respectively and allowed to stand for 4 h, then the liquid medicine was poured out, and the centrifugal tube was placed on a test table and air-dried for later use. A fine needle tip was heated with an alcohol lamp, and a small hole with a diameter of about 2-3 mm was formed at the bottom of the air-dried centrifugal tube by heating. One repetition was performed for each tube, and 4 repetitions were performed for each concentration. Leaf soaking: A hole puncher was used for punching fresh cabbage leaves into circular leaves with a diameter of 0.5 cm, and the circular leaves were respectively soaked in each concentration of liquid medicine for 10 s with leaf soaking in clear water as a control. The processed leaves were placed on absorbent paper and air-dried and then clamped with small tweezers into the centrifugal tubes with corresponding liquid medicine concentrations, and one leaf was placed flatly in each tube. Indoor insects for tests: An interface of an insect sucker was sealed with gauze and sleeves an orifice of the processed centrifugal tube, and the hole formed by heating at the bottom of the centrifugal tube was aligned with the insects for tests to enable the insects for tests to be sucked into the centrifugal tube along the airflow. The insects for tests were processed after control, about 30 insects for tests were sucked for each repetition, then a tube cover was covered, and the hole formed by heating was sealed with a sealing film. After related information was marked, the number of live insects and the number of dead insects were recorded 48 h later.
Test results were investigated 48 h after drug post-processing.
The logarithm of the medicament concentration (mg/L) was taken as an independent variable X, the probability value of a corrected death rate was taken as a dependent variable Y, and the LC50 value, LC90 value, 95% confidence limit and R2 of a toxicity regression line were computed by DPS software.

Myzus persicae Sulzer = test: Indoor toxicity test on Myzus persicae Sulzer wingless aphids, insect soaking and leaf soaking method; assay type: in vivo; set-up: LC50 value of the A4 as fraction of the LC50 value of the C4 / LC50 value of the A4 as fraction of the LC50 value of the B4: unit not given beside the values; conditions: for LC50: Myzus persicae Sulzer wingless aphids, 48 h after administration
Protocol: The aphid species was Myzus persicae Sulzer, which was a sensitive population raised indoors in the bioassay room of the Plant Protection Institute of Shandong Academy of Agricultural Sciences. The temperature range was 24-26° C., the humidity range was 60%-80%, and the illumination was L:D=16 h:8 h. Aphids used for tests were wingless aphids.
Test medicaments were prepared into a mother solution with methanol and then diluted with a Tween-80 aqueous solution having a mass concentration of 0.1% in equal proportions. According to effective components, the B4 was set to 6 concentration gradients of 0.5 mg/L, 1 mg/L, 2 mg/L, 4 mg/L, 8 mg/L, and 16 mg/L; the C4 was set to 6 concentration gradients of 0.5 mg/L, 1 mg/L, 2 mg/L, 4 mg/L, 8 mg/L, and 16 mg/L; and the A4 was set to 6 concentration gradients of 0.05 mg/L, 0.1 mg/L, 0.2 mg/L, 0.4 mg/L, 0.8 mg/L, and 1.6 mg/L. A methanol aqueous solution having a volume concentration of 4% was taken as a blank control.
Insects for tests were processed according to an insect soaking method (NY/T 1154.6-2006) and a leaf soaking method (NY/T 1154.14-2008). Each medicament for tests was diluted to the set 6 concentrations for later use. Absorbent paper was placed at the bottom of a disposable plastic cup, a layer of filter paper was laid on the absorbent paper, and 2 mL of distilled water was added to keep moisture for later use. Leaves with aphids were cut into small leaves, each leaf has about 20 wingless aphids, and the leaves with aphids were gently soaked in the liquid medicine with tweezers and then taken out after 10 s, and placed on the absorbent paper and air-dried. The air-dried leaves were placed in the prepared plastic cups which were then covered, and one leaf was placed in each plastic cup. One repetition was performed for each plastic cup, and 4 repetitions were performed for each concentration. The plastic cups were placed in an illumination incubator, and the number of live aphids and the number of dead aphids were recorded 48 h later.
DPS software was used for processing, and the median lethal concentration LC50 and 95% confidence limit of 3 test medicaments on aphids at 48 h were determined.
The logarithm of the medicament concentration (mg/L) was taken as an independent variable X, the probability value of a corrected death rate was taken as a dependent variable Y, and the LC50 value, 95% confidence limit and R2 of a toxicity regression line were computed by DPS software.

[1] = 0.05 mg/L, 48 h, single repetitions 1-4
[2] = 0.1 mg/L, 48 h, single repetitions 1-4
[3] = 2 mg/L, 48 h, single repetitions 1-4
[4] = 4 mg/L, 48 h, single repetitions 1-4
[5] = 8 mg/L, 48 h, single repetitions 1-4
[6] = 16 mg/L, 48 h, single repetitions 1-4
[7] = 0.5 mg/L, 48 h, single repetitions 1-4
[8] = 1 mg/L, 48 h, single repetitions 1-4

CO/N=C/NC(=O)c1ccc(C2=NOC(c3cc(Cl)cc(C(F)(F)F)c3)(C(F)(F)F)C2)c2ccccc12 (stereo not shown) [A4, 4-(5-(3-chloro-5-(trifluoromethyl)phenyl)-5-(trifluoromethyl)-4,5-dihydroisoxazol-3-yl)-N-((methoxylimino)methyl)-1-naphthyl formamide]
Death rate (Thrips palmi Karny; 0.003125 mg/L, 48 h, Total/Average): 9.97%
Death rate (Thrips palmi Karny; 0.00625 mg/L, 48 h, Total/Average): 37.74%
Death rate (Thrips palmi Karny; 0.00625 mg/L, 48 h, single repetitions 1-4): 35.00% and 29.41% and 42.11% and 44.44%
Death rate (Thrips palmi Karny; 0.0125 mg/L, 48 h, Total/Average): 61.14%
Death rate (Thrips palmi Karny; 0.0125 mg/L, 48 h, single repetitions 1-4): 55.00% and 60.00% and 69.57%
Death rate (Thrips palmi Karny; 0.025 mg/L, 48 h, Total/Average): 80.47%
Death rate (Thrips palmi Karny; 0.025 mg/L, 48 h, single repetitions 1-4): 85.19% and 73.91% and 80.95% and 81.82%
Death rate (Thrips palmi Karny; 0.05 mg/L, 48 h, Total/Average): 91.01%
Death rate (Thrips palmi Karny; [1]): 85.71% and 91.30% and 94.44% and 92.59%
Death rate (Thrips palmi Karny; 0.1 mg/L, 48 h, Total/Average): 100.00%
Death rate (Thrips palmi Karny; [2]): 100.00%
LC50 (Thrips palmi Karny): 0.0123 µg/mL (≈ 0.0226 µM)
LC90 (Thrips palmi Karny): 0.0705 µg/mL (≈ 0.13 µM)
LC90 value of the A4 as fraction of the LC90 value of the B4 (Thrips palmi Karny; Thrips palmi Karny, 48 h): 2/1000
LC90 value of the A4 as fraction of the LC90 value of the C4 (Thrips palmi Karny; Thrips palmi Karny, 48 h): 4/1000
Death rate (Myzus persicae Sulzer; 0.05 mg/L, 48 h, Total): 15.94%
Death rate (Myzus persicae Sulzer; [1]): 15.00% and 17.24% and 16.13% and 15.38%
Death rate (Myzus persicae Sulzer; 0.1 mg/L, 48 h, Total): 24.96%
Death rate (Myzus persicae Sulzer; [2]): 23.53% and 22.73% and 25.00% and 28.57%
Death rate (Myzus persicae Sulzer; 0.2 mg/L, 48 h, Total): 33.73%
Death rate (Myzus persicae Sulzer; 0.2 mg/L, 48 h, single repetitions 1-4): 33.33% and 35.71% and 34.29% and 31.58%
Death rate (Myzus persicae Sulzer; 0.4 mg/L, 48 h, Total): 40.78%
Death rate (Myzus persicae Sulzer; 0.4 mg/L, 48 h, single repetitions 1-4): 50.00% and 43.48% and 37.50% and 32.14%
Death rate (Myzus persicae Sulzer; 0.8 mg/L, 48 h, Total): 63.22%
Death rate (Myzus persicae Sulzer; 0.8 mg/L, 48 h, single repetitions 1-4): 61.29% and 67.74% and 60.53% and 63.33%
Death rate (Myzus persicae Sulzer; 1.6 mg/L, 48 h, Total): 84.47%
Death rate (Myzus persicae Sulzer; 1.6 mg/L, 48 h, single repetitions 1-4): 87.10% and 81.25% and 86.21% and 83.33%
LC50 (Myzus persicae Sulzer): 0.439 µg/mL (≈ 0.807 µM)
LC50 value of the A4 as fraction of the LC50 value of the B4 (Myzus persicae Sulzer; Myzus persicae Sulzer, 48 h): 14/100
LC50 value of the A4 as fraction of the LC50 value of the C4 (Myzus persicae Sulzer; Myzus persicae Sulzer, 48 h): 40/100

CO/N=C/NC(=O)c1ccc(C2=NOC(c3cc(Cl)cc(Cl)c3)(C(F)(F)F)C2)c2ccccc12 (stereo not shown) [B4, 4-(5-(3,5-dichlorophenyl)-5-(trifluoromethyl)-4,5-dihydroisoxazol-3-yl)-N-((methoxylimino)methyl)-1-naphthyl formamide]
Death rate (Thrips palmi Karny; 0.5 mg/L, 48 h, Total/Average): 18.31%
Death rate (Thrips palmi Karny; 1 mg/L, 48 h, Total/Average): 30.20%
Death rate (Thrips palmi Karny; 2 mg/L, 48 h, Total/Average): 33.85%
Death rate (Thrips palmi Karny; [3]): 30.77% and 36.84% and 27.78% and 40.00%
Death rate (Thrips palmi Karny; 4 mg/L, 48 h, Total/Average): 47.56%
Death rate (Thrips palmi Karny; [4]): 52.00% and 41.38% and 54.55% and 42.31%
Death rate (Thrips palmi Karny; 8 mg/L, 48 h, Total/Average): 67.00%
Death rate (Thrips palmi Karny; [5]): 79.17% and 68.00% and 58.33% and 62.50%
Death rate (Thrips palmi Karny; 16 mg/L, 48 h, Total/Average): 98.68%
Death rate (Thrips palmi Karny; [6]): 100.00% and 94.74%
LC50 (Thrips palmi Karny): 3.33 µg/mL (≈ 6.53 µM)
LC90 (Thrips palmi Karny): 33.9739 µg/mL (≈ 66.6 µM)
Death rate (Myzus persicae Sulzer; 0.5 mg/L, 48 h, Total): 12.01%
Death rate (Myzus persicae Sulzer; [7]): 10.00% and 12.50% and 13.04%
Death rate (Myzus persicae Sulzer; 1 mg/L, 48 h, Total): 20.73%
Death rate (Myzus persicae Sulzer; [8]): 15.15% and 22.22% and 21.74% and 23.81%
Death rate (Myzus persicae Sulzer; 2 mg/L, 48 h, Total): 45.08%
Death rate (Myzus persicae Sulzer; 4 mg/L, 48 h, Total): 61.17%
Death rate (Myzus persicae Sulzer; [4]): 41.94% and 58.33% and 72.00% and 72.41%
Death rate (Myzus persicae Sulzer; 8 mg/L, 48 h, Total): 78.33%
Death rate (Myzus persicae Sulzer; [5]): 80.95% and 66.67% and 85.71% and 80.00%
Death rate (Myzus persicae Sulzer; 16 mg/L, 48 h, Total): 84.61%
Death rate (Myzus persicae Sulzer; [6]): 88.89% and 86.96% and 81.82% and 80.77%
LC50 (Myzus persicae Sulzer): 3.13 µg/mL (≈ 6.14 µM)

CO/N=C/NC(=O)c1ccc(C2=NOC(c3cc(Cl)cc(Cl)c3)(C(F)(F)F)C2)cc1C (stereo not shown) [C4, fluxametamide]
Death rate (Thrips palmi Karny; 0.7813 mg/L, 48 h, Total/Average): 14.47%
Death rate (Thrips palmi Karny; 1.5625 mg/L, 48 h, Total/Average): 25.14%
Death rate (Thrips palmi Karny; 3.125 mg/L, 48 h, Total/Average): 66.15%
Death rate (Thrips palmi Karny; 3.125 mg/L, 48 h, single repetitions 1-4): 70.59% and 63.16% and 70.00% and 60.87%
Death rate (Thrips palmi Karny; 6.25 mg/L, 48 h, Total/Average): 82.01%
Death rate (Thrips palmi Karny; 6.25 mg/L, 48 h, single repetitions 1-4): 85.71% and 88.00% and 75.00% and 79.31%
Death rate (Thrips palmi Karny; 12.5 mg/L, 48 h, Total/Average): 87.89%
Death rate (Thrips palmi Karny; 12.5 mg/L, 48 h, single repetitions 1-4): 88.89% and 85.19% and 87.50% and 90.00%
Death rate (Thrips palmi Karny; 25 mg/L, 48 h, Total/Average): 96.78%
Death rate (Thrips palmi Karny; 25 mg/L, 48 h, single repetitions 1-4): 95.83% and 95.65% and 100.00%
LC50 (Thrips palmi Karny): 2.69 µg/mL (≈ 5.67 µM)
LC90 (Thrips palmi Karny): 16.1203 µg/mL (≈ 34 µM)
Death rate (Myzus persicae Sulzer; 0.5 mg/L, 48 h, Total): 21.47%
Death rate (Myzus persicae Sulzer; [7]): 25.00% and 25.71% and 16.67% and 18.52%
Death rate (Myzus persicae Sulzer; 1 mg/L, 48 h, Total): 46.05%
Death rate (Myzus persicae Sulzer; [8]): 47.83% and 36.36% and 40.00% and 60.00%
Death rate (Myzus persicae Sulzer; 2 mg/L, 48 h, Total): 77.48%
Death rate (Myzus persicae Sulzer; [3]): 85.71% and 77.78% and 75.00% and 71.43%
Death rate (Myzus persicae Sulzer; 4 mg/L, 48 h, Total): 85.54%
Death rate (Myzus persicae Sulzer; [4]): 89.29% and 88.00% and 87.10% and 77.78%
Death rate (Myzus persicae Sulzer; 8 mg/L, 48 h, Total): 96.06%
Death rate (Myzus persicae Sulzer; [5]): 91.67% and 92.59% and 100.00%
Death rate (Myzus persicae Sulzer; 16 mg/L, 48 h, Total): 97.20%
Death rate (Myzus persicae Sulzer; [6]): 93.33% and 100.00% and 95.45%
LC50 (Myzus persicae Sulzer): 1.1 µg/mL (≈ 2.32 µM)
